Experimental data: patent US9302999B2, “Substituted triazoles as herbicides” (E. I. DU PONT DE NEMOURS AND COMPANY, priority 2012, dated 2016)

Tests used:
Type in all cases: in vivo
[1] = test system: surinam grass (Brachiaria decumbens); test: Test C pre-/postemergence: surinam grass
Outline: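 Visual injury scored 0–100 (100 = complete control) against untreated controls after 13–15 greenhouse days. Surfactant-containing solvent formulations applied either to soil after sowing (loam/sand) or over 1- to 4-leaf plants, 2–18 cm tall.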

[2] = test system: barley (winter barley, Hordeum vulgare); test: Test C postemergence: barley
Outline: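 Plants at the 1- to 4-leaf stage (2 to 18 cm tall), grown in pots of peat moss/vermiculite planting medium, received postemergence applications of the formulated test chemicals. After 13 to 15 days in a greenhouse, injury was scored visually versus controls from 0 (no effect) to 100 (complete control).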

rice (Oryza sativa) = test: Test C flooded paddy test: rice; conditions: Oryza sativa, scale 0 to 100 (0 no effect, 100 complete control), read-out: Plant response rating, Rice
Outline: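 Greenhouse plants treated at the 2-leaf stage by dosing the flood water (3 cm depth, maintained) were compared with controls after 13 to 15 days and rated 0 to 100, where 100 means complete control; a dash marks no test result.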

[3] = test system: blackgrass (Alopecurus myosuroides); test: Test D pre-/postemergence: blackgrass
Outline: (§1)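 Scores run from 0 (no effect) to 100 (complete control), assigned by visual comparison with controls after 14 to 21 days in a controlled environment. Both preemergence application to silt loam and postemergence application to 1- to 4-leaf plants were tested.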

[4] = test system: chickweed (common chickweed, Stellaria media); test: Test D pre-/postemergence: chickweed; conditions: Postemergence; for Plant response rating, Chickweed: 16 g ai/ha, scale 0 to 100
Outline: as §1

[5] = test system: ryegrass, Italian (Italian ryegrass, Lolium multiflorum); test: Test D pre-/postemergence: ryegrass, Italian
Outline: as §1

[6] = test system: Russian thistle (Salsola iberica); test: Test D pre-/postemergence: Russian thistle
Outline: as §1

[7] = test system: buckwheat, wild (wild buckwheat, Polygonum convolvulus); test: Test D pre-/postemergence: buckwheat, wild
Outline: as §1

[8] = Postemergence, 31 g ai/ha, scale 0 to 100 (0 no effect, 100 complete control)
[9] = Postemergence, 62 g ai/ha, scale 0 to 100 (0 no effect, 100 complete control)
[10] = Postemergence, 125 g ai/ha, scale 0 to 100, 0 no effect, 100 complete control
[11] = 62 g ai/ha, scale 0 to 100 (0 no effect, 100 complete control)
[12] = 125 g ai/ha, scale 0 to 100, 0 no effect, 100 complete control
[13] = Postemergence, 250 g ai/ha, scale 0 to 100 (0 no effect, 100 complete control)
[14] = Postemergence, 16 g ai/ha, scale 0 to 100
[15] = Preemergence, 16 g ai/ha, scale 0 to 100 (0 no effect, 100 complete control)
[16] = Preemergence, 31 g ai/ha, scale 0 to 100 (0 no effect, 100 complete control)
[17] = Preemergence, 62 g ai/ha, scale 0 to 100
[18] = Preemergence, 125 g ai/ha, scale 0 to 100
[19] = Preemergence, 250 g ai/ha, scale 0 to 100
[20] = 31 g ai/ha, scale 0 to 100 (0 no effect, 100 complete control)
[21] = 250 g ai/ha, scale 0 to 100 (0 no effect, 100 complete control)

Which results are given for Cc1nn(-c2ccc(F)cc2)nc1Cc1ccnc(C(F)(F)F)c1 [Compound 16, 4-[[2-(4-fluorophenyl)-5-methyl-2H-1,2,3-triazol-4-yl]methyl]-2-(trifluoromethyl)pyridine]?
Plant response rating, Surinam Grass [1, 8]: 5; Plant response rating, Surinam Grass [1, 9]: 5; Plant response rating, Surinam Grass [1, 10]: 10; Plant response rating, Surinam Grass ([1]; Postemergence, 250 g ai/ha, scale 0 to 100): 45; Plant response rating, Barley [2, 11]: 35; Plant response rating, Barley [2, 12]: 45; Plant response rating, Barley ([2]; 250 g ai/ha, scale 0 to 100): 45; plant injury at 62 g/ha (rice (Oryza sativa); Flood (flooded paddy test), 62 g ai/ha, visual rating after 13 to 15 days): 30%; plant injury at 125 g/ha (rice (Oryza sativa); Flood (flooded paddy test), 125 g ai/ha, visual rating after 13 to 15 days): 40%; plant injury at 250 g/ha (rice (Oryza sativa); Flood (flooded paddy test), 250 g ai/ha, visual rating after 13 to 15 days): 50%; plant injury at 31 g/ha (rice (Oryza sativa); Flood, 31 g ai/ha): 20%; Plant response rating: Blackgrass [3, 8]: 10; Plant response rating: Blackgrass [3, 9]: 20; Plant response rating: Blackgrass [3, 10]: 25; Plant response rating: Blackgrass [3, 13]: 40; Plant response rating, Blackgrass [3, 14]: 5; Plant response rating, Blackgrass [3, 15]: 0; Plant response rating, Blackgrass [3, 16]: 0; Plant response rating, Blackgrass [3, 17]: 40; Plant response rating, Blackgrass [3, 18]: 70; Plant response rating, Blackgrass [3, 19]: 100; Plant response rating: Chickweed [4, 20]: 70; Plant response rating: Chickweed [4, 11]: 90; Plant response rating: Chickweed [4, 12]: 95; Plant response rating: Chickweed [4, 21]: 95; Plant response rating, Chickweed [4]: 40; Plant response rating: Ryegrass, Italian [5, 8]: 20; Plant response rating: Ryegrass, Italian [5, 9]: 25; Plant response rating: Ryegrass, Italian [5, 10]: 30; Plant response rating: Ryegrass, Italian [5, 13]: 35; Plant response rating, Ryegrass, Italian [5, 14]: 10; Plant response rating, Ryegrass, Italian [5, 15]: 0; Plant response rating, Ryegrass, Italian [5, 16]: 0; Plant response rating, Ryegrass, Italian [5, 17]: 10; Plant response rating, Ryegrass, Italian [5, 18]: 60; Plant response rating, Ryegrass, Italian [5, 19]: 60; Plant response rating: Russian Thistle [6, 8]: 95; Plant response rating: Russian Thistle [6, 9]: 100; Plant response rating: Russian Thistle [6, 10]: 100; Plant response rating: Russian Thistle [6, 13]: 100; Plant response rating, Russian Thistle [6, 14]: 90; Plant response rating, Russian Thistle [6, 15]: 0; Plant response rating, Russian Thistle [6, 16]: 35; Plant response rating, Russian Thistle [6, 17]: 40; Plant response rating, Russian Thistle [6, 19]: 90; Plant response rating: Buckwheat, Wild [7, 8]: 0; Plant response rating: Buckwheat, Wild [7, 9]: 10; Plant response rating: Buckwheat, Wild [7, 10]: 20; Plant response rating: Buckwheat, Wild [7, 13]: 50; Plant response rating, Buckwheat, Wild [7, 14]: 0; Plant response rating, Buckwheat, Wild [7, 15]: 0; Plant response rating, Buckwheat, Wild [7, 16]: 0; Plant response rating, Buckwheat, Wild [7, 17]: 0; Plant response rating, Buckwheat, Wild [7, 18]: 0; Plant response rating, Buckwheat, Wild [7, 19]: 20

Which results are given for CCOc1nn(-c2ccc(F)cc2)nc1Cc1ccnc(C(F)F)c1 [Compound 195]?
Plant response rating, Surinam Grass [1, 8]: 30; Plant response rating, Surinam Grass [1, 9]: 50; Plant response rating, Surinam Grass [1, 13]: 60; Plant response rating, Surinam Grass ([1]; Preemergence, 31 g ai/ha, scale 0 (no effect) to 100 (complete control)): 55; Plant response rating, Surinam Grass ([1]; Preemergence, 62 g ai/ha, scale of 0 to 100, 0 is no effect, 100 is complete control): 75; Plant response rating, Surinam Grass ([1]; Preemergence, 125 g ai/ha, scale 0 to 100, 0 no effect, 100 complete control): 85; Plant response rating, Surinam Grass ([1]; Preemergence, 250 g ai/ha, scale 0 to 100, 0 no effect, 100 complete control): 98; Plant response rating, Barley [2, 20]: 15; Plant response rating, Barley [2, 11]: 20; Plant response rating, Barley [2, 12]: 35; Plant response rating, Barley ([2]; 250 g ai/ha, scale 0 to 100): 35; Plant response rating: Blackgrass [3, 8]: 25; Plant response rating: Blackgrass [3, 9]: 35; Plant response rating: Blackgrass [3, 10]: 50; Plant response rating: Blackgrass [3, 13]: 70; Plant response rating, Blackgrass [3, 14]: 20; Plant response rating, Blackgrass [3, 15]: 0; Plant response rating, Blackgrass [3, 16]: 70; Plant response rating, Blackgrass [3, 17]: 75; Plant response rating, Blackgrass [3, 18]: 80; Plant response rating, Blackgrass [3, 19]: 100; Plant response rating: Chickweed [4, 20]: 40; Plant response rating: Chickweed [4, 11]: 60; Plant response rating: Chickweed [4, 12]: 85; Plant response rating: Chickweed [4, 21]: 90; Plant response rating, Chickweed [4]: 30; Plant response rating: Ryegrass, Italian [5, 8]: 10; Plant response rating: Ryegrass, Italian [5, 9]: 20; Plant response rating: Ryegrass, Italian [5, 10]: 20; Plant response rating: Ryegrass, Italian [5, 13]: 25; Plant response rating, Ryegrass, Italian [5, 14]: 5; Plant response rating, Ryegrass, Italian [5, 15]: 0; Plant response rating, Ryegrass, Italian [5, 16]: 0; Plant response rating, Ryegrass, Italian [5, 17]: 0; Plant response rating, Ryegrass, Italian [5, 18]: 20; Plant response rating, Ryegrass, Italian [5, 19]: 60; Plant response rating: Russian Thistle [6, 8]: 40; Plant response rating: Russian Thistle [6, 9]: 80; Plant response rating: Russian Thistle [6, 10]: 85; Plant response rating: Russian Thistle [6, 13]: 100; Plant response rating, Russian Thistle [6, 14]: 15; Plant response rating, Russian Thistle [6, 15]: 0; Plant response rating, Russian Thistle [6, 16]: 0; Plant response rating, Russian Thistle [6, 17]: 0; Plant response rating, Russian Thistle [6, 18]: 0; Plant response rating, Russian Thistle [6, 19]: 30; Plant response rating: Buckwheat, Wild [7, 8]: 20; Plant response rating: Buckwheat, Wild [7, 9]: 30; Plant response rating: Buckwheat, Wild [7, 10]: 35; Plant response rating: Buckwheat, Wild [7, 13]: 65; Plant response rating, Buckwheat, Wild [7, 14]: 15; Plant response rating, Buckwheat, Wild [7, 15]: 0; Plant response rating, Buckwheat, Wild [7, 16]: 0; Plant response rating, Buckwheat, Wild [7, 17]: 20; Plant response rating, Buckwheat, Wild [7, 18]: 20; Plant response rating, Buckwheat, Wild [7, 19]: 40
